Assay results published in patent US8283353B2, “Fused ring compound and use thereof” (Takeda Pharmaceutical Company Limited, priority 2009, dated 2012).

Columns and labels:
human AT1 receptor = molecular target: T1, human AT1 receptor (Homo sapiens, UniProt P30556); test: AT1 receptor antagonistic activity: [125I]-angiotensin II binding assay on human AT1 receptor-expressing CHO-K1 cellular membrane fraction; conditions: 22.5 pM [125I]-angiotensin II, 1 hr room temperature
T1 construct: expressed in transfected cells; membrane fraction
T1 sequence (P30556 1-359): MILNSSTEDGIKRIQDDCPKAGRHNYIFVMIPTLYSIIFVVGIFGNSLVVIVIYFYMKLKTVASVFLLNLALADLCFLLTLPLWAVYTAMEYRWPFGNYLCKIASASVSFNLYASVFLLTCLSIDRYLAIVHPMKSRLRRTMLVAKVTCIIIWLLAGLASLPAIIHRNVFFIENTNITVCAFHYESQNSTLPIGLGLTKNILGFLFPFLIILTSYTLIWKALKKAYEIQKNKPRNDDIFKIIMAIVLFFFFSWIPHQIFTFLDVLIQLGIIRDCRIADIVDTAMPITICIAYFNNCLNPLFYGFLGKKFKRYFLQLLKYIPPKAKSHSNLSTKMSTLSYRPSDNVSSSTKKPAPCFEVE
Procedure, shortened: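 Competition binding used radiolabelled angiotensin II on stably transfected CHO-K1 membrane fractions in Tris pH 7.4/MgCl2 buffer, optionally containing 0.3 mg/mL fatty acid-free BSA, 1 hr at room temperature. Filtration onto GF/C separated bound tracer, and nonspecific binding was measured with candesartan.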

human PPARγ = molecular target: T2, human PPARγ (Homo sapiens, UniProt P37231); test: PPARγ agonistic activity: luciferase reporter assay in PPARγ:RXRα:4ERPP/CHO-K1 cells; assay type: cell-based; conditions: CHO-K1, test compound 10^−6 M; luciferase activity of control compound X (1 μM) = 100%, non-administration group = 0%
T2 construct: expressed in transfected cells
T2 sequence (P37231 1-477 isoform P37231-2): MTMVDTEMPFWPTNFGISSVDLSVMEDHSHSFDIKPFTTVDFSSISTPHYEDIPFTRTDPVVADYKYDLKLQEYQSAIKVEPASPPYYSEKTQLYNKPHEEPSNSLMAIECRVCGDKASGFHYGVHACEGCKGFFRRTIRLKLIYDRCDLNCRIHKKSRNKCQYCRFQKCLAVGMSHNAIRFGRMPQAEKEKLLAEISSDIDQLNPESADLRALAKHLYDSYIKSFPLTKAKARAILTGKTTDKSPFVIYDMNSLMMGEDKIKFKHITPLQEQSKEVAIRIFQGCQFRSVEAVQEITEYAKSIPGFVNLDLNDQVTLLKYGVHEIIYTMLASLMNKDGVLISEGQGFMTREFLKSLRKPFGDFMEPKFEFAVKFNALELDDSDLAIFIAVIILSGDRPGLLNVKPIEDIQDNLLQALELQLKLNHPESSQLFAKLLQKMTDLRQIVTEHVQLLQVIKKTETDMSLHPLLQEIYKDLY
T2 sequence (P19793 1-462 partner): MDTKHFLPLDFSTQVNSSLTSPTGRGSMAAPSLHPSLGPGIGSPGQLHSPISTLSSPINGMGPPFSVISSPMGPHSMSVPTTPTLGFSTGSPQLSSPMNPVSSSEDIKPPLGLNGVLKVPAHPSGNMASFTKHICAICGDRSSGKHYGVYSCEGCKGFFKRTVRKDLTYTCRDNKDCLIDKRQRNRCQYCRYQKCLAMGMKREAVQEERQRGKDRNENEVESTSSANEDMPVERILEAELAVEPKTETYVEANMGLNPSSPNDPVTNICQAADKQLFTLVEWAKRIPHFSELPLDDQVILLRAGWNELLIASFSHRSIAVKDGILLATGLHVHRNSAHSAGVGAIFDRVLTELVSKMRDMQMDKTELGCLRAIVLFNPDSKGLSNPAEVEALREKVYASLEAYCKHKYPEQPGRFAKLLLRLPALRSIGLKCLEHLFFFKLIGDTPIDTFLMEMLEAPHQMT
Procedure, shortened: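 Activity is expressed relative to untreated cells (0%) and 1 μM reference compound X (100%), from luciferase luminescence. Reporter line: PPARγ:RXRα:4ERPP/CHO-K1, exposed to compound for one day at 37 °C in F12 medium containing 0.1% fatty-acid-free BSA.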

CCCc1c(C(C)c2ccc(-c3ccccc3-c3noc(=O)[nH]3)cc2)c(=O)n([C@H]2CC[C@H](OCC(C)(C)O)CC2)c2ncnn12 (stereo partly drawn) [Example 131, 4-[trans-4-(2-hydroxy-2-methylpropoxy)cyclohexyl]-6-{1-[2′-(5-oxo-4,5-dihydro-1,2,4-oxadiazol-3-yl)biphenyl-4-yl]ethyl}-7-propyl[1,2,4]triazolo[1,5-a]pyrimidin-5(4H)-one]
IC50 (human AT1 receptor): 2.9 nM
activation at 1 µM (human PPARγ): 15%

CCCCc1c(Cc2ccc(-c3ccccc3-c3noc(=O)[nH]3)cc2)c(=O)n(C2CCOC(C)(C)C2)c2ncnn12 (stereo not shown) [Example 134, 7-butyl-4-(2,2-dimethyltetrahydro-2H-pyran-4-yl)-6-{[2′-(5-oxo-4,5-dihydro-1,2,4-oxadiazol-3-yl)biphenyl-4-yl]methyl}[1,2,4]triazolo[1,5-a]pyrimidin-5(4H)-one]
IC50 (human AT1 receptor): 1.3 nM
activation at 1 µM (human PPARγ): 26%

CCCCc1c(Cc2ccc(-c3ccccc3-c3noc(=O)[nH]3)cc2F)c(=O)n(C2CCOCC2)c2nc(C)nn12 [Example 135, 7-butyl-6-{[3-fluoro-2′-(5-oxo-4,5-dihydro-1,2,4-oxadiazol-3-yl)biphenyl-4-yl]methyl}-2-methyl-4-(tetrahydro-2H-pyran-4-yl)[1,2,4]triazolo[1,5-a]pyrimidin-5(4H)-one]
IC50 (human AT1 receptor): 0.9 nM
activation at 1 µM (human PPARγ): 26%

CCCc1c(Cc2ccc(-c3ccccc3-c3noc(=O)[nH]3)cc2F)c(=O)n(C2CCOC(C)(C)C2)c2nc(C)nn12 (stereo not shown) [Example 136, 4-(2,2-dimethyltetrahydro-2H-pyran-4-yl)-6-{[3-fluoro-2′-(5-oxo-4,5-dihydro-1,2,4-oxadiazol-3-yl)biphenyl-4-yl]methyl}-2-methyl-7-propyl[1,2,4]triazolo[1,5-a]pyrimidin-5(4H)-one]
IC50 (human AT1 receptor): 1.3 nM
activation at 1 µM (human PPARγ): 17%

CCCCc1c(Cc2ccc(-c3ccccc3-c3noc(=O)[nH]3)cc2)c(=O)n(C2CCOC(C)(C)C2)c2nc(C)nn12 (stereo not shown) [Example 137, 7-butyl-4-(2,2-dimethyltetrahydro-2H-pyran-4-yl)-2-methyl-6-{[2′-(5-oxo-4,5-dihydro-1,2,4-oxadiazol-3-yl)biphenyl-4-yl]methyl}[1,2,4]triazolo[1,5-a]pyrimidin-5(4H)-one]
IC50 (human AT1 receptor): 1.4 nM
activation at 1 µM (human PPARγ): 20%

CCCCc1c(Cc2ccc(-c3ccccc3-c3noc(=O)[nH]3)cc2)c(=O)n([C@@H]2C[C@@H](C)O[C@@H](C)C2)c2ncnn12 [Example 138, 7-butyl-4-[(2R,4s,6S)-2,6-dimethyltetrahydro-2H-pyran-4-yl]-6-{[2′-(5-oxo-4,5-dihydro-1,2,4-oxadiazol-3-yl)biphenyl-4-yl]methyl}[1,2,4]triazolo[1,5-a]pyrimidin-5(4H)-one]
IC50 (human AT1 receptor): 1.3 nM
activation at 1 µM (human PPARγ): 8%

CCCCc1c(Cc2ccc(-c3ccccc3-c3noc(=O)[nH]3)cc2)c(=O)n([C@H]2C[C@@H](C)O[C@@H](C)C2)c2ncnn12 [Example 139, 7-butyl-4-[(2R,4r,6S)-2,6-dimethyltetrahydro-2H-pyran-4-yl]-6-{[2′-(5-oxo-4,5-dihydro-1,2,4-oxadiazol-3-yl)biphenyl-4-yl]methyl}[1,2,4]triazolo[1,5-a]pyrimidin-5(4H)-one]
IC50 (human AT1 receptor): 1.7 nM
activation at 1 µM (human PPARγ): 6%

CCCc1c(Cc2ccc(-c3ccccc3-c3noc(=O)[nH]3)cc2)c(=O)n(C2CCC(C)OC2)c2nc(C)nn12 (stereo not shown) [Example 144, 2-methyl-4-(6-methyltetrahydro-2H-pyran-3-yl)-6-{[2′-(5-oxo-4,5-dihydro-1,2,4-oxadiazol-3-yl)biphenyl-4-yl]methyl}-7-propyl[1,2,4]triazolo[1,5-a]pyrimidin-5(4H)-one]
IC50 (human AT1 receptor): 1.4 nM
activation at 1 µM (human PPARγ): 20%

CCCCc1c(Cc2ccc(-c3ccccc3-c3noc(=O)[nH]3)cc2)c(=O)n(C2CCC(O)CC2)c2ncnn12 (stereo not shown) [Example 147, 7-butyl-4-(4-hydroxycyclohexyl)-6-{[2′-(5-oxo-4,5-dihydro-1,2,4-oxadiazol-3-yl)biphenyl-4-yl]methyl}[1,2,4]triazolo[1,5-a]pyrimidin-5(4H)-one]
IC50 (human AT1 receptor): 1 nM
activation at 1 µM (human PPARγ): 26%

CCCCc1c(Cc2ccc(-c3ccccc3-c3noc(=O)[nH]3)cc2)c(=O)n(C2CCC(OC)CC2)c2ncnn12 (stereo not shown) [Example 148, 7-butyl-4-(4-methoxycyclohexyl)-6-{[2′-(5-oxo-4,5-dihydro-1,2,4-oxadiazol-3-yl)biphenyl-4-yl]methyl}[1,2,4]triazolo[1,5-a]pyrimidin-5(4H)-one]
IC50 (human AT1 receptor): 1.9 nM
activation at 1 µM (human PPARγ): 52%

CCCc1c(Cc2ccc(-c3ccccc3-c3noc(=O)[nH]3)cc2)c(=O)n([C@H]2CC[C@]3(CCCO3)CC2)c2ncnn12 [Example 150, 4-[(5S,8S)-1-oxaspiro[4.5]dec-8-yl]-6-{[2′-(5-oxo-4,5-dihydro-1,2,4-oxadiazol-3-yl)biphenyl-4-yl]methyl}-7-propyl[1,2,4]triazolo[1,5-a]pyrimidin-5(4H)-one]
IC50 (human AT1 receptor): 1.4 nM
activation at 1 µM (human PPARγ): 58%

CCCc1c(Cc2ccc(-c3ccccc3-c3noc(=O)[nH]3)cc2)c(=O)n([C@H]2CC[C@@]3(CCCO3)CC2)c2ncnn12 [Example 151, 4-[(5R,8R)-1-oxaspiro[4.5]dec-8-yl]-6-{[2′-(5-oxo-4,5-dihydro-1,2,4-oxadiazol-3-yl)biphenyl-4-yl]methyl}-7-propyl[1,2,4]triazolo[1,5-a]pyrimidin-5(4H)-one]
IC50 (human AT1 receptor): 1.6 nM
activation at 1 µM (human PPARγ): 35%

CCCc1c(Cc2ccc(-c3ccccc3-c3noc(=O)[nH]3)cc2)c(=O)n(C2CCC(OC)CC2)c2ncnn12 (stereo not shown) [Example 152, 4-(4-methoxycyclohexyl)-6-{[2′-(5-oxo-4,5-dihydro-1,2,4-oxadiazol-3-yl)biphenyl-4-yl]methyl}-7-propyl[1,2,4]triazolo[1,5-a]pyrimidin-5(4H)-one]
IC50 (human AT1 receptor): 2.4 nM
activation at 1 µM (human PPARγ): 39%

C=CCOC1CCC(n2c(=O)c(Cc3ccc(-c4ccccc4-c4noc(=O)[nH]4)cc3)c(CCC)n3ncnc23)CC1 (stereo not shown) [Example 153, 6-{[2′-(5-oxo-4,5-dihydro-1,2,4-oxadiazol-3-yl)biphenyl-4-yl]methyl}-4-[4-(prop-2-en-1-yloxy)cyclohexyl]-7-propyl[1,2,4]triazolo[1,5-a]pyrimidin-5(4H)-one]
IC50 (human AT1 receptor): 1.9 nM
activation at 1 µM (human PPARγ): 53%

CCCc1c(Cc2ccc(-c3ccccc3-c3noc(=O)[nH]3)cc2)c(=O)n(C2CCC(OCCOC)CC2)c2ncnn12 (stereo not shown) [Example 154, 4-[4-(2-methoxyethoxy)cyclohexyl]-6-{[2′-(5-oxo-4,5-dihydro-1,2,4-oxadiazol-3-yl)biphenyl-4-yl]methyl}-7-propyl[1,2,4]triazolo[1,5-a]pyrimidin-5(4H)-one]
IC50 (human AT1 receptor): 2.1 nM
activation at 1 µM (human PPARγ): 33%

CCCc1c(Cc2ccc(-c3ccccc3-c3noc(=O)[nH]3)c(C)c2)c(=O)n([C@H]2CC[C@H](OCC(C)(C)O)CC2)c2nc(C)nn12 [Example 155, 4-[trans-4-(2-hydroxy-2-methylpropoxy)cyclohexyl]-2-methyl-6-{[2-methyl-2′-(5-oxo-4,5-dihydro-1,2,4-oxadiazol-3-yl)biphenyl-4-yl]methyl}-7-propyl[1,2,4]triazolo[1,5-a]pyrimidin-5(4H)-one]
IC50 (human AT1 receptor): 1.6 nM
activation at 1 µM (human PPARγ): 18%

CCCc1c(Cc2ccc(-c3ccccc3-c3noc(=O)[nH]3)cc2)c(=O)n([C@H]2CC[C@@H](OCCO)CC2)c2ncnn12 [Example 163, 4-[cis-4-(2-hydroxyethoxy)cyclohexyl]-6-{[2′-(5-oxo-4,5-dihydro-1,2,4-oxadiazol-3-yl)biphenyl-4-yl]methyl}-7-propyl[1,2,4]triazolo[1,5-a]pyrimidin-5(4H)-one]
IC50 (human AT1 receptor): 1.6 nM
activation at 1 µM (human PPARγ): 40%
